What was measured:
[1] = relative to losartan; cited from earlier work
[2] = Dissolution experiment, paddle method, 900 ml medium, 50 rpm; format: physicochemical
Description: By using the prepared Comparative example 1, dissolution experiments was made in a buffer having a pH of 1.2 (prepared by mixing 2.0 g of sodium chloride with 7.0 ml of hydrochloric acid and adding purified water until it totals 1 liter), a buffer having a pH of 4.0 (prepared by mixing 0.05 mol/L acetic acid solution with 0.05 mol/L sodium acetate solution (41:9) and adjusting a pH to 4.0), a buffer having a pH of 6.8 (prepared by mixing 250 ml of 0.2 mol/L potassium dihydrogen phosphate test solution with 118 ml of 0.2 mol/L sodium hydroxide test solution and adding water until it totals 1 liter), and purified water. In this instance, a paddle method was used, an amount of a dissolution medium was 900 ml, and a paddle rotation rate was 50 rpm. Like Comparative example 1, the dissolution of Examples 1-4 in a buffer having a pH of 1.2 was evaluated. Like Example 1, the dissolution of Examples 5-10 in a buffer having a pH of 1.2 was evaluated. Like Comparative example 1, the dissolution of Example 9 in different dissolution media was evaluated.

- behaviour on contact with purified water or a buffer [2]: gelled
SMILES: CCCCc1nc(Cl)c(C(=O)O)n1Cc1ccc(-c2ccccc2-c2nnn[nH]2)cc1 [losartan carboxylic acid, 2-butyl-4-chloro-1-[(2′-(1H-tetrazol-5-yl)[1,1′-biphenyl]-4-yl)methyl]-1H-imidazole-5-carboxylic acid]
- half life compared with losartan [1]: longer
